Experiments:
Assay in all cases: KDAC inhibition assay, Caliper EZ Reader II
Format in all cases: biochemical
Settings in all cases: % inhibition at 30 μM
recombinant human KDAC3 = target: T1, recombinant human KDAC3 (Homo sapiens, UniProt O15379)
T1 construct: purchased BPS Bioscience

recombinant human KDAC6 = target: T2, recombinant human KDAC6 (Homo sapiens, UniProt Q9UBN7)
T2 construct: purchased BPS Bioscience
T2 sequence (Q9UBN7 1-1215): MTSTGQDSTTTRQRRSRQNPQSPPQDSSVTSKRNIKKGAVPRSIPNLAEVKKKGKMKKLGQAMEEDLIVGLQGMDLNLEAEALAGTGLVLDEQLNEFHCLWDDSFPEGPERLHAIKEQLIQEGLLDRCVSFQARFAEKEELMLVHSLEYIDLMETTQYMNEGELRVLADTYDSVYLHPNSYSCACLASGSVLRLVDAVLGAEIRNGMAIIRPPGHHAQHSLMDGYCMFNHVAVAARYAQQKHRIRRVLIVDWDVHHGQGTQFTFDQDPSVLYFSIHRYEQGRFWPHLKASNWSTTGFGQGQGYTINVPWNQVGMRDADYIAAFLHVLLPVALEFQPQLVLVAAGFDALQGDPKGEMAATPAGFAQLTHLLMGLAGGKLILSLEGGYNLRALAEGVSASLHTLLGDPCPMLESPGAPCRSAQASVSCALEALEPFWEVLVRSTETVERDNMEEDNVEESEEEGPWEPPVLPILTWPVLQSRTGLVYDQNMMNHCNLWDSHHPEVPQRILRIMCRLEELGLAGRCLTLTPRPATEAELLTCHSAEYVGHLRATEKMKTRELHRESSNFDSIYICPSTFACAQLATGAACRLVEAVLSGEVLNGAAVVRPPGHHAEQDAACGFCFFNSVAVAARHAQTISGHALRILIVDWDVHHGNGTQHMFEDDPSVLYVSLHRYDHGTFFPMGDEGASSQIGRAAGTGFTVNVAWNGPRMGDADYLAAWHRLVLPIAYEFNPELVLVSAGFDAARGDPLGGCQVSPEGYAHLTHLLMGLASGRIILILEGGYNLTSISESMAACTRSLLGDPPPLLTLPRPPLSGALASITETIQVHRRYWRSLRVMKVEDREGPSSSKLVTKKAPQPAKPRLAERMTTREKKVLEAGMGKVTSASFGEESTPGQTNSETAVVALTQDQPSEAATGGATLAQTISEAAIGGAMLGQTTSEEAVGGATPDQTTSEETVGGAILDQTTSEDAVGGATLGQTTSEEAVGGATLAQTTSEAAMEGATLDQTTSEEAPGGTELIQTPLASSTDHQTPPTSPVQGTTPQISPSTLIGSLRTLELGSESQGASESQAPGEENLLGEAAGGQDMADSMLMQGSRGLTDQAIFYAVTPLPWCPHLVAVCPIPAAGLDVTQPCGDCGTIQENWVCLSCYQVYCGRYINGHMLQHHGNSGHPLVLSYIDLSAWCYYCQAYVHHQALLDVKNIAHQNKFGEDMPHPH

recombinant human KDAC1 = target: T3, recombinant human KDAC1 (Homo sapiens, UniProt Q13547)
T3 construct: purchased BPS Bioscience
T3 sequence (Q13547 whole entry): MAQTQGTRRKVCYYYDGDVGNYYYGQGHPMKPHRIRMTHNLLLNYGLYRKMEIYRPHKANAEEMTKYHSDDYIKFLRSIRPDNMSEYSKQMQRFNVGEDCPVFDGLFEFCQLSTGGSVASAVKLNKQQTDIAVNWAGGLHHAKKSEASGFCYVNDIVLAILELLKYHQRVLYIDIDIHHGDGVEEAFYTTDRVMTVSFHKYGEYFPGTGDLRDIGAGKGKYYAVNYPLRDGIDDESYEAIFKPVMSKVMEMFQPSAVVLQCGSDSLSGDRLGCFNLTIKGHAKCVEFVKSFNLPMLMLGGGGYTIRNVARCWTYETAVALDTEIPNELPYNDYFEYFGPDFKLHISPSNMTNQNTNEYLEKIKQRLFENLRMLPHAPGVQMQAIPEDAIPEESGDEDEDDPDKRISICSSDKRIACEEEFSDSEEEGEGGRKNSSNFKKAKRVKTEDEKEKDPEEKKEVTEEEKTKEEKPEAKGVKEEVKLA

recombinant human KDAC8 = target: T4, recombinant human KDAC8 (Homo sapiens, UniProt Q9BY41)
T4 construct: purchased BPS Bioscience
T4 sequence (Q9BY41 1-377): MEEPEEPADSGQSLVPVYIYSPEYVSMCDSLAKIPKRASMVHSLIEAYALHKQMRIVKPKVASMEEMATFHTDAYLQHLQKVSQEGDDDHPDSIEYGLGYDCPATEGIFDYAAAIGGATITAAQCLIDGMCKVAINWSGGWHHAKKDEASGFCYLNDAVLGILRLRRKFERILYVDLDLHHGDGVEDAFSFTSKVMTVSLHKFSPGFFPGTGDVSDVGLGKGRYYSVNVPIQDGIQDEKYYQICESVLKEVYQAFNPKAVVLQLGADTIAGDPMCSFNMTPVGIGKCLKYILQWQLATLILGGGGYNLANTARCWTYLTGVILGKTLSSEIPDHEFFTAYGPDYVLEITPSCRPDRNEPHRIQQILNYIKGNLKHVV

T1 sequence (O15379 whole entry): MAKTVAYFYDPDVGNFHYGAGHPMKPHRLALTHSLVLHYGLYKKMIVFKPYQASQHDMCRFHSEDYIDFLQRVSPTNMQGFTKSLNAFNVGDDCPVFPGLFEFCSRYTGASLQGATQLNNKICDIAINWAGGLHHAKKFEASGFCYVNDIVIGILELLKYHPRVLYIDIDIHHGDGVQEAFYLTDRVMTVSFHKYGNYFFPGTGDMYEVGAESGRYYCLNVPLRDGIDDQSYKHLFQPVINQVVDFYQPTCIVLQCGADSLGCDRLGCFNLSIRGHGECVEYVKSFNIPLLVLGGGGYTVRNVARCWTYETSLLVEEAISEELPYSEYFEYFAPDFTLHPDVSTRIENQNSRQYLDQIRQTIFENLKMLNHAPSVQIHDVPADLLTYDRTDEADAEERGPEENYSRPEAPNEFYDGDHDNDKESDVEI
T1 sequence (Q9Y618 395-489 partner limits assumed): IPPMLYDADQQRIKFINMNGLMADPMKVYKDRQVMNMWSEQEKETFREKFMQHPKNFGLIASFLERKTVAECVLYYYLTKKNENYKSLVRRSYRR

Substance	KDAC Inhibition Activity KDAC3 (% inhibition) (recombinant human KDAC3)	KDAC Inhibition Activity KDAC6 (% inhibition) (recombinant human KDAC6)	KDAC Inhibition Activity KDAC1 (% inhibition) (recombinant human KDAC1)	KDAC Inhibition Activity KDAC8 (% inhibition) (recombinant human KDAC8)
Cyclo-^DAsp(Pro-^DPro-Val)-NHCH2CH2CH2SCH3 [Compound 19b]	Not active	Not active	1%	27%
Cyclo-Asp(Pro-^DPro-Val)-NHCH2CH2CH2S(═O)CH3 [Compound 20a]	Not active	Not active	Not active	19%
Cyclo-Asp(Pro-^DPro-Val)-NHCH2CH2CH2COOMe [Compound 23a]	7%	Not active	Not active	Not active
Cyclo-Asp(Pro-^DPro-Val)-NHCH2CH2CH2COOH [Compound 24a]	8%	Not active	4%	36%
Cyclo-^DAsp(Pro-^DPro-Val)-NHCH2CH2CH2OH [Compound 22b]	5%	Not active	Not active	12%
Cyclo-^DAsp(^DPro-Pro-Val)-NHCH2CH2CH2SH [Compound 6b]	9%	Not active	Not active	8%
Cyclo-^DAsp(Pro-^DPro-Val)-NHCH2CH2S—SCH2CH2NH2 [Compound 26b]	Not active	13%	Not active	4%
Cyclo-Asp(^DPro-Pro-Val)-NHCH2CH2CH2SCH3 [Compound 7a]	Not active	6%	Not active	5%
Cyclo-^DAsp(Pro-^DPro-Val)-NHCH2CH2CH2S(═O)2CH3 [Compound 21b]	Not active	12%	Not active	8%
Cyclo-^DAsp(^DPro-Pro-Val)-NHCH2CH2S—SCH2CH2NH2 [Compound 15b]	7%	7%	5%	Not active
Cyclo-^DAsp(^DPro-Pro-Val)-NHCH2CH2SH [Compound 5b]	Not active	23%	Not active	6%
Cyclo-Asp(Pro-^DPro-Val)-NHCH2CH2SH [Compound 17a]	2%	15%	Not active	5%

From patent publication US10421778B2, “Isoform-selective lysine deacetylase inhibitors” (WASHINGTON UNIVERSITY, priority 2015, dated 2019)
